Legend:
[1] = test system: cotton aphid (Aphis gossypil); assay: Greenhouse trial, cotton plants infected with cotton aphid, sprayed; % control; type: in vivo
Protocol: (§1) A greenhouse trial was conducted to determine the insecticidal effects against the cotton aphid (Aphis gossypil). In this regard, cotton plants infected with the cotton aphid were sprayed in a growth chamber and placed in a greenhouse. Counts were made on apterous forms at 6 and 16 days after treatment (DAT), with the data appearing in Tables 1A and 1 B below.

[2] = test system: green peach aphids (Myzus persicae); assay: Greenhouse trial, celosia infected with green peach aphids; % control; type: in vivo
Protocol: as §1
Example 1 was repeated except using celosia infected with green peach aphids (Myzus persicae) and using the application rates noted.

[3] = test system: twospotted spider mites (Tetranychus urticae); assay: Greenhouse trial, dracaena infected with twospotted spider mites; % control; type: in vivo
Protocol: as §1
Example 1 was repeated except using dracaena infected with twospotted spider mites (Tetranychus urticae) and using the application rates noted.

cotton aphid = assay: Greenhouse trial, number of apterous aphids (AA) per cotton plant; type: in vivo, Aphis gossypil; details: for # of AA 6 DAT / # of AA 16 DAT: apterous aphids per plant; for # of AA 6 DAT: untreated 290; for # of AA 16 DAT: untreated 750
Protocol: as §1
Example 1 was repeated and the number of apterous aphids (AA) per plant at 6 and 16 DAT were noted. The data appear in Table 4 below versus a conventional insecticide, imidacloprid (Provado® insecticide commercially available from Bayer Corp.).

SMILES | % Cotton Aphid Control 6 DAT ([1]; 5 ppm) [%] | % Cotton Aphid Control 16 DAT ([1]; 5 ppm) [%] | % Cotton Aphid Control 6 DAT ([1]; 10 ppm) [%] | % Cotton Aphid Control 16 DAT ([1]; 10 ppm) [%] | % Cotton Aphid Control 6 DAT ([1]; 50 ppm) [%] | % Cotton Aphid Control 16 DAT ([1]; 50 ppm) [%] | % Cotton Aphid Control 6 DAT ([1]; 100 ppm) [%] | % Cotton Aphid Control 16 DAT ([1]; 100 ppm) [%] | # of AA 6 DAT (cotton aphid; 5 ppm ai) | # of AA 16 DAT (cotton aphid; 5 ppm ai) | # of AA 6 DAT (cotton aphid; 10 ppm ai) | # of AA 16 DAT (cotton aphid; 10 ppm ai) | # of AA 6 DAT (cotton aphid; 50 ppm ai) | # of AA 16 DAT (cotton aphid; 50 ppm ai) | # of AA 6 DAT (cotton aphid; 100 ppm ai) | # of AA 16 DAT (cotton aphid; 100 ppm ai) | other results
CC(C)(C)c1ccc(CSc2cnn(C(C)(C)C)c(=O)c2Cl)cc1 [BAS 300, 2-tert-butyl-5-(4-tert-butylbenzylthio)-4-chloropyridazin-3(2H)-one] | 73.8 | 68.9 | 75.2 | 70.4 | 94.5 | 98 | 97.6 | 99.1 | 76 | 233 | 72 | 222 | 16 | 15 | 7 | 7 | % Green Peach Aphid Control ([2]; 0.9 lb ai/100 gal, 2 DAT): 0%; % Green Peach Aphid Control ([2]; 0.9 lb ai/100 gal, 4 DAT): 47%; % Green Peach Aphid Control ([2]; 0.9 lb ai/100 gal, 6 DAT): 77%; % Green Peach Aphid Control ([2]; 0.9 lb ai/100 gal, 10 DAT): 97%; % Green Peach Aphid Control ([2]; 0.9 lb ai/100 gal, 14 DAT): 95%; % Twospotted Spider Mite Control ([3]; 2 oz formulated product/100 gal, 7 DAT): 80%; % Twospotted Spider Mite Control ([3]; 2 oz formulated product/100 gal, 14 DAT): 91%; activity against the cotton aphid (cotton aphid; 6 DAT, application rate of 5 ppm ai): moderate activity; # of AA 6 DAT (cotton aphid; 200 ppm ai): 1; # of AA 16 DAT (cotton aphid; 200 ppm ai): 4; # of AA 6 DAT (cotton aphid; 300 ppm ai): 2; # of AA 16 DAT (cotton aphid; 300 ppm ai): 2; intrinsic activity against the cotton aphid (cotton aphid; in vivo): excellent intrinsic activity
CO/N=C(/C(=O)OC)c1ccccc1COc1ccccc1C [BAS 490, methyl-(E)-2-methoxyimino-2-[2-o-tolyoxy-methyl)phenyl] acetate] | 11 | 13.3 | 0 | 14.3 | 0 | 4.4 | 0 | 26.6 | 258 | 650 | 290 | 643 | 298 | 717 | 316 | 550 | % Green Peach Aphid Control ([2]; 0.1 lb ai/100 gal, 2 DAT): 0%; % Green Peach Aphid Control ([2]; 0.1 lb ai/100 gal, 4 DAT): 14%; % Green Peach Aphid Control ([2]; 0.1 lb ai/100 gal, 6 DAT): 5%; % Green Peach Aphid Control ([2]; 0.1 lb ai/100 gal, 10 DAT): 10%; % Green Peach Aphid Control ([2]; 0.1 lb ai/100 gal, 14 DAT): 5%; % Twospotted Spider Mite Control ([3]; 3.2 oz formulated product/100 gal, 7 DAT): 16%; % Twospotted Spider Mite Control ([3]; 3.2 oz formulated product/100 gal, 14 DAT): 28%; effectiveness alone against the cotton aphid (cotton aphid; alone, at all rates): ineffective alone
